The text below walks through data of PubChem BioAssay (NCI).

Test systems include A498 renal; COLO 205 colon; KM12 colon; MCF7 breast; MDA-MB-231 breast; NCI/ADR-RES ovarian; OVCAR-8 ovarian; SNB-75 CNS; U251 CNS; UO-31 renal.
Holding throughout (experiment): NCI tumour cell line growth inhibition, 48 h

Each structure is given as a SMILES string.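 Method: 48-hour compound exposure of cells in 96-well plates, five concentrations, linear interpolation of endpoints. The concentration for full growth arrest is given as TGI.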

Regarding `CCCCCCCCCCCCCCCC(=O)OCC(COP(=O)(O)OCCNC(=O)CCSSc1ccccn1)OC(=O)CCCCCCCCCCCCCCC` (stereo not given), the TGI in the test on A498 renal, with COLO 205 colon, in the test on KM12 colon, in the test with MCF7 breast, in the test on MDA-MB-231 breast and in the test with NCI/ADR-RES ovarian was above 100 µM each time. Also, the TGI in the test with OVCAR-8 ovarian, in the test on SNB-75 CNS, in the test on U251 CNS and with UO-31 renal was above 100 µM in each case.
In the case of `CNC(=O)N(C)C(=O)c1ccccc1C(=O)N(C)C(=O)NC`, the TGI in the test on A498 renal, in the test with COLO 205 colon, in the test with KM12 colon, with MCF7 breast, in the test with MDA-MB-231 breast and in the test on NCI/ADR-RES ovarian was above 10 µM in each case. Besides, the TGI with OVCAR-8 ovarian, in the test with SNB-75 CNS, with U251 CNS and in the test with UO-31 renal was above 10 µM throughout.
Take `CC1SCCc2nc3ccccc3n21` (stereo not given): the TGI in the test with A498 renal, in the test with COLO 205 colon, with KM12 colon, with MCF7 breast, in the test on MDA-MB-231 breast and in the test on NCI/ADR-RES ovarian was above 100 µM throughout. Also, the TGI with OVCAR-8 ovarian, with SNB-75 CNS, in the test on U251 CNS and in the test on UO-31 renal was above 100 µM throughout.
Turning to `COc1ccc(-c2cc(=O)c3cc(OC)c(OC)cc3[nH]2)cc1OC`, the TGI with A498 renal, in the test with COLO 205 colon, in the test on KM12 colon, with MCF7 breast, in the test with MDA-MB-231 breast and in the test on NCI/ADR-RES ovarian was above 100 µM in each case. Moreover, the TGI with OVCAR-8 ovarian, in the test on SNB-75 CNS, with U251 CNS and with UO-31 renal was above 100 µM in each case.
Regarding `O=C(CCc1ccccc1)NCCc1ccc(O)c(O)c1`, the TGI in the test with A498 renal is above 100 µM; in the test on COLO 205 colon it was 58.5 µM; in the test on KM12 colon it was above 94.4 µM; with MCF7 breast, 93.9 µM; in the test with MDA-MB-231 breast it was above 72.3 µM; in the test on NCI/ADR-RES ovarian it was above 100 µM. Besides, the TGI in the test on OVCAR-8 ovarian was above 85.6 µM; in the test with SNB-75 CNS, above 100 µM; in the test on U251 CNS, above 100 µM; in the test with UO-31 renal, 49.2 µM.
For the compound `CCCCSC1=N/C(=C\c2ccccc2O)C(Cl)=N1`, the TGI with A498 renal, in the test on COLO 205 colon, with KM12 colon, in the test with MCF7 breast, in the test with MDA-MB-231 breast and with NCI/ADR-RES ovarian was above 100 µM throughout. Moreover, the TGI in the test on OVCAR-8 ovarian, in the test with SNB-75 CNS, in the test with U251 CNS and with UO-31 renal was above 100 µM throughout.
On to `CO/C(N)=C(\C#N)N=Cc1cccs1`, for which the TGI in the test with A498 renal, with COLO 205 colon, with KM12 colon, in the test on MCF7 breast, in the test with MDA-MB-231 breast and in the test with NCI/ADR-RES ovarian was above 100 µM each time. The TGI with OVCAR-8 ovarian, in the test with SNB-75 CNS, in the test with U251 CNS and with UO-31 renal was above 100 µM throughout.
Take `CC(C)=C[C@@H]1C[C@H](C)[C@H]2CC[C@H](C)[C@H]3C(=O)C(O)=C(C)C(=O)[C@]123`: the TGI in the test with A498 renal, in the test on COLO 205 colon, in the test with KM12 colon, in the test with MCF7 breast, in the test on MDA-MB-231 breast and in the test with NCI/ADR-RES ovarian was above 100 µM each time. Besides, the TGI with OVCAR-8 ovarian, with SNB-75 CNS, in the test with U251 CNS and in the test on UO-31 renal was above 100 µM in each case.
Regarding `FC(F)(Sc1nc2ccccc2[nH]1)c1nc2ccccc2o1`, the TGI in the test with A498 renal, in the test on COLO 205 colon, in the test on KM12 colon, in the test with MCF7 breast, in the test on MDA-MB-231 breast and in the test on NCI/ADR-RES ovarian was above 100 µM each time. Further, the TGI in the test with OVCAR-8 ovarian, in the test on SNB-75 CNS, in the test with U251 CNS and in the test on UO-31 renal was above 100 µM in each case.
`COc1ccc2c(C=O)c3n(c(=O)c2c1OC)CCc1cc2c(cc1-3)OCO2`: the TGI is above 100 µM in the test on A498 renal; 82 µM with COLO 205 colon; above 100 µM with KM12 colon; above 100 µM with MCF7 breast; above 100 µM with MDA-MB-231 breast; above 100 µM with NCI/ADR-RES ovarian. For the same compound, the TGI with OVCAR-8 ovarian, in the test on SNB-75 CNS, in the test on U251 CNS and with UO-31 renal was above 100 µM throughout.
Regarding `CC(=O)Nc1ccc(C(=O)NN2C(=O)CSC2c2ccccc2)cc1` (stereo not given), the TGI in the test with A498 renal, in the test with COLO 205 colon, with KM12 colon, with MCF7 breast, in the test on MDA-MB-231 breast and in the test with NCI/ADR-RES ovarian was above 100 µM each time. The TGI in the test on OVCAR-8 ovarian, in the test with SNB-75 CNS, in the test on U251 CNS and in the test with UO-31 renal was above 100 µM throughout.
As to `CC(=O)Oc1c(OC(C)C)cc(=O)n2ccsc12`, the TGI in the test with A498 renal, in the test on COLO 205 colon, in the test with KM12 colon, with MCF7 breast, in the test on MDA-MB-231 breast and in the test on NCI/ADR-RES ovarian was above 100 µM each time. The TGI with OVCAR-8 ovarian, in the test with SNB-75 CNS, in the test with U251 CNS and with UO-31 renal was above 100 µM throughout.
As to `COC(=O)C1CCC(=S)N1C(C)=O` (stereo not given), the TGI with A498 renal, with COLO 205 colon, with KM12 colon, in the test with MCF7 breast, in the test on MDA-MB-231 breast and with NCI/ADR-RES ovarian was above 100 µM in each case. Besides, the TGI in the test with OVCAR-8 ovarian, in the test on SNB-75 CNS, with U251 CNS and in the test on UO-31 renal was above 100 µM each time.
As to `Nc1c(/C=C/c2cc3cc(C4=NCCN4)ccc3o2)[nH]c2cc(C3=NCCN3)ccc12`, the TGI with A498 renal, in the test with COLO 205 colon, with KM12 colon, with MCF7 breast, in the test with MDA-MB-231 breast and with NCI/ADR-RES ovarian was above 100 µM in each case. Also, the TGI in the test with OVCAR-8 ovarian, in the test with SNB-75 CNS, with U251 CNS and with UO-31 renal was above 100 µM each time.
With `CCCCN1/C(=N/Nc2n[nH]c(=O)c3ccccc23)SCC1c1ccc(Cl)cc1` (stereo not given), the TGI in the test on A498 renal is 66.2 µM; with COLO 205 colon, above 100 µM; with KM12 colon, 19.6 µM; with MCF7 breast it was 33.2 µM; in the test with MDA-MB-231 breast, 55 µM; in the test with NCI/ADR-RES ovarian it was 47 µM. Also, the TGI in the test on OVCAR-8 ovarian is above 100 µM; in the test on SNB-75 CNS, 64 µM; in the test on U251 CNS it was 21.2 µM; in the test on UO-31 renal it was 93.3 µM.
On to `CCOP(=O)(OCC)/C(C#N)=C(\C)c1ccco1`, for which the TGI in the test with A498 renal, with COLO 205 colon, in the test with KM12 colon, in the test with MCF7 breast, in the test with MDA-MB-231 breast and with NCI/ADR-RES ovarian was above 10 µM each time. Further, the TGI with OVCAR-8 ovarian, with SNB-75 CNS, in the test on U251 CNS and in the test with UO-31 renal was above 10 µM in each case.
In the case of `COc1ccc(/[N+]([O-])=C/c2ccccc2OC(=S)S)cc1`, the TGI in the test on A498 renal is above 100 µM; in the test on COLO 205 colon it was above 100 µM; in the test on KM12 colon, above 100 µM; in the test on MCF7 breast, above 100 µM; in the test with MDA-MB-231 breast it was above 100 µM; in the test on NCI/ADR-RES ovarian, 94.9 µM. In addition, the TGI in the test with OVCAR-8 ovarian was 45 µM; in the test with SNB-75 CNS, above 100 µM; with U251 CNS, above 100 µM; with UO-31 renal, above 100 µM.
Regarding `CCN(CC)CCCNc1nnc(C)c2[nH]c3ccccc3c12`, the TGI in the test on A498 renal was 43.1 µM; with COLO 205 colon it was 13.1 µM; in the test with KM12 colon it was above 100 µM; in the test with MCF7 breast, above 100 µM; with MDA-MB-231 breast, 39.5 µM; in the test on NCI/ADR-RES ovarian, above 100 µM. Besides, the TGI in the test with OVCAR-8 ovarian was 42.3 µM; in the test on SNB-75 CNS it was 38.8 µM; in the test with U251 CNS, above 100 µM; in the test with UO-31 renal, above 100 µM.
`COc1cc(CC2C(=O)OCC2Cc2ccc(OC)c(OC)c2)ccc1O` (stereo not given): the TGI in the test with A498 renal, in the test with COLO 205 colon, with KM12 colon, in the test on MCF7 breast, with MDA-MB-231 breast and in the test on NCI/ADR-RES ovarian was above 100 µM each time. Besides, the TGI with OVCAR-8 ovarian, in the test with SNB-75 CNS, in the test with U251 CNS and with UO-31 renal was above 100 µM throughout.
Take `CC(=O)CC(=O)N1CCOC1=O`: the TGI in the test with A498 renal, in the test with COLO 205 colon, in the test on KM12 colon, in the test with MCF7 breast, in the test with MDA-MB-231 breast and in the test with NCI/ADR-RES ovarian was above 10 µM in each case. The TGI with OVCAR-8 ovarian, in the test with SNB-75 CNS, in the test on U251 CNS and with UO-31 renal was above 10 µM throughout.
For the compound `COc1ccc(NC(=S)Nc2cccc(C)n2)cc1`, the TGI in the test on A498 renal, in the test on COLO 205 colon, in the test on KM12 colon, in the test on MCF7 breast, in the test with MDA-MB-231 breast and in the test on NCI/ADR-RES ovarian was above 100 µM throughout. Moreover, the TGI in the test on OVCAR-8 ovarian, with SNB-75 CNS, with U251 CNS and with UO-31 renal was above 100 µM throughout.
For `Nc1nc(N)c2ncn(Cc3ccccc3)c2n1`, the TGI in the test on A498 renal, in the test with COLO 205 colon, in the test on KM12 colon, in the test with MCF7 breast, in the test with MDA-MB-231 breast and with NCI/ADR-RES ovarian was above 100 µM throughout. The TGI in the test on OVCAR-8 ovarian was above 100 µM; in the test with SNB-75 CNS, 0.937 µM; in the test with U251 CNS, above 100 µM; in the test on UO-31 renal, above 100 µM.
Turning to `CCc1n[nH]c(=O)n1-c1ccncc1`, the TGI with A498 renal, in the test on COLO 205 colon, in the test on KM12 colon, in the test with MCF7 breast, with MDA-MB-231 breast and with NCI/ADR-RES ovarian was above 100 µM throughout. In addition, the TGI with OVCAR-8 ovarian, in the test with SNB-75 CNS, in the test with U251 CNS and in the test on UO-31 renal was above 100 µM throughout.
